Columns and labels:
murine model of sepsis = system: murine model of sepsis; set-up: method as in PMID 18937852; conditions: within 4 h of LPS injection ref 26; cited from earlier work
rat A2aR (rA2aR) = rat A2aR (rA2aR) (Rattus norvegicus, UniProt P30543); experiment: cAMP assay in PC-12 cells (endogenous rat A2aR); conditions: A2bR antagonist pre-incubated 15 min
human monocytes = experiment: PMA-stimulated TNF-α production by human monocytes; type: cell-based
[1] = rapidly degraded in vivo by adenosine deaminase; no reference given; cited from earlier work

rat A2aR (rA2aR), sequence (P30543 whole entry): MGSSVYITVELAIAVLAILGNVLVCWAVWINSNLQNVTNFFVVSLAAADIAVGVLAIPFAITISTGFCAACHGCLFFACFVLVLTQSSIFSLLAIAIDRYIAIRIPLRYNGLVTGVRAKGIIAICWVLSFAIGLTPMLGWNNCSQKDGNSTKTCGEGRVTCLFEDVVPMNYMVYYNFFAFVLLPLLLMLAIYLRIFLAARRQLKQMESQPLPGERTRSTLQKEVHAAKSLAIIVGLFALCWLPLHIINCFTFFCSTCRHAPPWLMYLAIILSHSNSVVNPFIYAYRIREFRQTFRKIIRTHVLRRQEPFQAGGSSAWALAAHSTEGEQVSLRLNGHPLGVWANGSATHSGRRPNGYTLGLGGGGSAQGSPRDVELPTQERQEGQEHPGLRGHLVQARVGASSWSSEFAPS

## COC(=O)N1CCC(CC#Cc2nc(N)c3ncn([C@@H]4O[C@H](C(=O)NC5CC5)[C@@H](O)[C@H]4O)c3n2)CC1 [ATL313]
Murine model of sepsis
  circulating plasma levels of TNF-α, MIP-1α, MCP-1: decreases
  plasma level of IL-10: increases

## CCCn1c(=O)c2[nH]c(-c3ccc(OCC(=O)Nc4ccc(C#N)cc4)cc3)nc2n(CCC)c1=O [MRS 1754, N-(4-Cyanophenyl)-2-[4-(2,3,6,7-tetrahydro-2,6-dioxo-1,3-dipropyl-1H-purin-8-yl)phenoxy]-acetamide]
Rat A2aR (rA2aR)
  effect on adenosine- or adenosine plus AEA061-induced cAMP production: failed to inhibit

## CCNC(=O)[C@H]1O[C@@H](n2cnc3c(N)ncnc32)[C@H](O)[C@@H]1O [NECA, 5′-N-Ethylcarboxamidoadenosine]
Human monocytes; human monocytes/macrophages, NECA 1 μM, PMA 5 ng/ml, 12 h
  effect on PMA-stimulated TNF-α production: inhibited

## Nc1nc(NCCc2ccc(O)cc2)nc2nc(-c3ccco3)nn12 [ZM 241385, 4-(2-[7-Amino-2-(2-furyl)[1,2,4]triazolo[2,3-a][1,3,5]triazin-5-ylamino]ethyl)phenol]
Human monocytes; human monocytes, 15 min pretreatment, AEA061 1 μM, PMA 5 ng/ml
  effect on AEA061-mediated inhibition of PMA-stimulated TNF-α production: blunted
Human monocytes; human monocytes, 15 min pretreatment, NECA 1 μM, PMA 5 ng/ml
  effect on NECA-mediated inhibition of TNF-α production: reversed the NECA-mediated inhibition in a dose-dependent manner
Human monocytes; human monocytes, ZM 241385 at 1 μM
  PMA-stimulated TNF-α responsiveness in NECA- and AEA061-treated cells: restored

## Nc1ncnc2c1ncn2[C@@H]1O[C@H](CO)[C@@H](O)[C@H]1O [adenosine]
[1]
  half-life in vivo: less than 10 seconds
